{"source": "patent US20230339878A1", "about": "“SLC26A3 INHIBITORS AND USE THEREOF” (THE REGENTS OF THE UNIVERSITY OF CALIFORNIA, priority 2018, published 2023)", "biological_target": "T1, TMEM16A (Homo sapiens, UniProt Q5XXA6)", "T1 sequence (Q5XXA6 1-986)": "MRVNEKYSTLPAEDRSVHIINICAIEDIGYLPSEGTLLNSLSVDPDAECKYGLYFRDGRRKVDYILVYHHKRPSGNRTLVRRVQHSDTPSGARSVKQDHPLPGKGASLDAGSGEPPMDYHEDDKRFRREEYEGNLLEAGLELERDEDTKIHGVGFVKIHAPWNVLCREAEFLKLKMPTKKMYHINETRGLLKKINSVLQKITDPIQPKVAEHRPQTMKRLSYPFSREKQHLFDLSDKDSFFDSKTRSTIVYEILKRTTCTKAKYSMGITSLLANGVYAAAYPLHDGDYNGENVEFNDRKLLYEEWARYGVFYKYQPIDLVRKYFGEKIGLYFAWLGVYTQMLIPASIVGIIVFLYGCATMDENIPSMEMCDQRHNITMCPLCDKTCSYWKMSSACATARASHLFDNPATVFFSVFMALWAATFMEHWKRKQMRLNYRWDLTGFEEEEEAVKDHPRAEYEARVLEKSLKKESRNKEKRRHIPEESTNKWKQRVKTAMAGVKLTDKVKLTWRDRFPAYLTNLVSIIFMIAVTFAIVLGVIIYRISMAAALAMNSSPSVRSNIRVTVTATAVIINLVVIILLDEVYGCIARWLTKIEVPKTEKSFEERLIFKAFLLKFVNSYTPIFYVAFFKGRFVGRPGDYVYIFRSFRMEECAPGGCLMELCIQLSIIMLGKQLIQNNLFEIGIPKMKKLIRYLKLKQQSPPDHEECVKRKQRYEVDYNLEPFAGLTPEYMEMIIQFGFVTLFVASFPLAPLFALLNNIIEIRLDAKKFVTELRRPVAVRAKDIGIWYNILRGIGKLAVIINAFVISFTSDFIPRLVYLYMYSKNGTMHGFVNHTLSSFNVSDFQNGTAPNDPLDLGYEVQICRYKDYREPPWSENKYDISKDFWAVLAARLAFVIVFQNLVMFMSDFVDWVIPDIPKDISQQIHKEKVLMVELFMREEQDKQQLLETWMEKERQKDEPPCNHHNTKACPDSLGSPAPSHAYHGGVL", "experiment": "Selectivity: TMEM16A (ATP-stimulated) YFP assay", "assay_type": "cell-based", "details": "10 µM", "description": "To investigate Compound A1 selectivity, transport assays were done on a panel of SLC26-family homologs, and other relevant epithelial ion transporters and channels. […] In separate studies, to investigate possible action of Compound A1 on multiple ion transporters and channels in a human epithelium, human bronchial epithelial (HBE) cells were studied by short-circuit current, with successive additions of amiloride (to block the epithelial sodium channel ENaC), forskolin, CFTRinh-172 (to block CFTR), and ATP (to activate the Ca^2+-activated chloride channel, CaCC) (FIG. 5C).\nYFP-based assays of CFTR, pendrin and TMEM16A were as described. HEK cells transfected to express YFP and SLC26A3, slc26a6 or slc26a9 were functionally assayed using a Cl^-/I^- exchange protocol. Assays of Cl^-/HCO3^- exchange were done using BCECF as an intracellular pH indicator as described for pendrin. […]\nHEK293 cells transfected with pIRES-YFP-slc26a9 were plated in 96-well black-walled, clear-bottom tissue culture plates (Corning Life Sciences, Tewksbury, MA) after coating with FNC Coating Mix (AthenaES, Baltimore, MD). […] Assays of slc26a9-mediated anion exchange were done by initially recording YFP fluorescence prior to addition of 100 µL of NaI-substituted PBS to test wells, with the initial rate of Cl^-/I^- exchange deduced from fluorescence intensity by single exponential regression. […]", "note": "Entries after “also recorded” stand apart in the source; their conditions may differ.", "data": [{"smiles": "Cc1c(CC(=O)O)c(=O)oc2c(C)c(OCc3cccc(Br)c3)ccc12", "note": "[Compound A1]", "values": [{"measurement": "effect on activity of TMEM16A", "value": "did not alter the activity; also recorded: differences not significant"}]}]}
